Assay results taken from US20100284925A1, “Small Molecule Intervention for Obesity” (priority 2006, published 2010).
Entries after “also recorded” stand apart in the source; their conditions may differ.

Columns and labels:
PLTP promoter = assay: PLTP-promoter luciferase reporter in HepG2 and transgenic HepG2/PLTPpLuc cells; type: cell-based, human; settings: for effect on transactivation of PLTP promoter by prieurianin: co-treatment with prieurianin, 200 nM staurosporine or 200 nM TSA; for transactivation of PLTP promoter: luciferase reporter, HepG2 or HepG2/PLTPpLuc cells
Excerpt: FIG. 2A. A 1.5 Kb PLTP promoter fused to a luciferase reporter was transactivated by topotecan dose-dependently.
FIG. 2B. Activation of PLTP promoter by topotecan in HepG2 transgenic cells containing the PLTP-promoter luciferase reporter gene fused to the neomycin selectable marker cassette and stably transfected into HepG2 cells to generate the transgenic line (Top panel). Dose-dependent induction of PLTP promoter by topotecan (Bottom panel). Results are the means S.E. of three experiments after normalization with Renilla luciferase.
FIG. 3A. Dose-dependent transactivation of the PLTP promoter by prieurianin in the HepG2 transgenic cells. Results are the means S.E. of three experiments after normalization with Renilla luciferase.
FIG. 3B. […] 1, Control; 2. […] Results are the means±S.E. of triplicate experiments.
FIG. 11. Transactivation of PLTP promoter by cytotoxic and non-cytotoxic drugs. Survey of transactivation of the PLTP promoter by various cytotoxic and non-cytotoxic drugs in the HepG2 transgenic cells was conducted. Results are the means S.E. of three experiments.
FIG. 12. Effects of trichostatin A (TSA) on transactivation of PLTP promoter by prieurianin. Dose response activation of PLTP promoter by prieurianin either in the presence or the absence of 200 nM TSA. Results are the means S.E. of three experiments.
To determine whether non-cytotoxic small molecules could induce PLTP expression, the inventor herein subcloned the PLTP-promoter luciferase reporter into a vector containing a neomycin (G418)-resistance selectable marker and generated a transgenic HepG2 cell line, which harbors the PLTP-promoter luciferase reporter, by stable gene transfection and selection with G418.
The transgenic cells were then screened with a library of small molecules derived from natural products.

NIH-3T3/L1 preadipocytes = assay: Differentiation of NIH-3T3/L1 preadipocytes into adipocytes (oil red O or Nile Red staining); type: cell-based
Method: FIG. 7. […] NIH-3T3/L1 cells were induced into differentiation and simultaneously treated with 2 μM of prieurianin. Differentiated cells were stained with oil red O—FIG. 7A, undifferentiated control.
Histogram represents A510 nm absorbance of oil red O stain isopropanol extracts from cells. Results are means±S.E. of triplicate experiments.
(§1) FIG. 19. Effects of bufalin on preadipocyte differentiation, and dedifferentiation/delipidation in adipo-cytes. NIH-3T3/L1 cells were induced into differentiation and simultaneously treated with either 1 μM of bufalin or 2 μM of prieurianin. Differentiated cells were stained with Nile Red. Alternatively, preadipocytes were induced into differentiation and five days following differentiation, cells were treated with either 1 μM of bufalin or 2 μM of prieurianin for an additional five days and followed by staining with Nile Red. Stained cells were evaluated by fluorescence microscopy.
To determine the effects of prieurianin on the differentiation of preadipocytes to adipocytes, the NIH-3T3/L1 preadipocytes were treated with or without the drug at the same time when induction of differentiation was initiated.

[1] = system: phospholipid transfer protein (PLTP) gene expression; assay: PLTP gene expression in HepG2 cells by DNA microarray and Northern blot; type: cell-based, human
Method: The patent or application file contains at least one drawing executed in color. Copies of this patent with color drawings will be provided by the United States Patent and Trademark Office upon request and payment of necessary fee. FIG. 1. Pharmacological response of HepG2 cells to topotecan by DNA Microarray. HepG2 cells were treated with 500 nM for various times (A) or with various concentrations of topotecan (B) for 24 hrs. Dendrogram of the expression changes of the phospholipid transfer protein (PLTP) is shown. (C) Induction of PLTP expression by topotecan was confirmed independently by Northern blot analysis.
The mechanisms of resistance to topoisomerase (Top) 1 inhibitors by expression genomics were studied by conducting time-course and dose-response experiments by DNA microarray to investigate the pharmacological response of the human hepatocellular blastoma HepG2 cells to topotecan, which were either treated with 500 nM of topotecan (a cytotoxic anticancer agent) for various times (0, 1, 3, 5, 10, 15, and 24 hrs), or with various doses of topotecan (0, 10, 50, 100, 300, 500, and 1000 nM) for 24 hrs.
Activation of PLTP expression by topotecan was temporally regulated and dose dependent, with a late onset, peaking at 24 hrs with an approximately 20-fold induction.

PLTP [2] = assay: PLTP release into conditioned media (Western blot); type: cell-based
Method: (§2) FIG. 10. Release of adiponectin and PLTP by preadipocytes and adipocytes, and in serum of normal mice. Preadipocytes (B and D) were treated with 2 μM of prieurianin and media collected after 36 hrs for Western blot analysis of either adiponectin (A and B) or PLTP (C and D). Alternatively, five days following differentiation, conditioned media of adipocyets (A and C) were collected for Western analysis. E. Serum of normal C57BL/6J mice given prieurianin or topotecan (0, 2, 5, and 10 mg/kg) was analyzed by Western blot for PLTP.
The expression and secretion of PLTP by preadipocytes and adipocytes was also assessed. Thus, preadipocytes produced and released both the low and the high molecular weight forms of PLTP, while adipocytes secreted only the low molecular weight form (see FIGS. 10C and 10D) into the conditioned media.

adiponectin = assay: Adiponectin release into conditioned media (Western blot); type: cell-based; settings: NIH-3T3/L1 preadipocytes, approximately 36 hrs after treatment
Method: as §2
Adipose tissue contains various types of cells including preadipocytes and adipocytes. Also, preadipocytes secrete factors involved in their own differentiation. Once differentiated, the mature adipocytes acquire the ability to communicate distally with other organs including brain, liver, and skeletal muscle and locally with other cells such as preadipocytes, endothelial cells and monocytes/macrophages by secreting leptin and adiponectin. In addition, anti-adipogenic cytokines prevent the release of adiponectin by preadipocytes. Thus, the production of adiponectin and PLTP by preadipocytes and adipocytes was assessed.

PLTP [3] = assay: Serum PLTP protein by Western blot in normal C57BL/6J mice; type: in vivo; settings: normal C57BL/6J mice, 0, 2, 5 and 10 mg/kg
Method: as §2

C/EBPα = C/EBPα response element luciferase reporter in L1 preadipocytes; type: cell-based; settings: prieurianin 2 μM
Method: (§3) FIG. 18. Effects of prieurianin on C/EBPα and β and PPARγ mediated transcription in adipogenesis. Response elements corresponding to C/EBPα and β and PPARγ are cloned into the pGL3 basic luciferase reporter plasmid. L1 preadipocytes were contransfected with the reporter plasmid either in the presence or the absence of the corresponding transcription factors cloned into expression vector, followed by treatment with 2 μM of prieurianin. Cells were harvested for luciferase assay 15-24 hrs later. Results are means±S.E. of triplicate experiments.

C/EBPβ = C/EBPβ response element luciferase reporter in L1 preadipocytes; type: cell-based; settings: prieurianin 2 μM
Method: as §3

NFκB = assay: NFκB-response element luciferase reporter in L1 preadipocytes; type: cell-based; settings: prieurianin 2 μM
PPARγ = PPARγ response element luciferase reporter in L1 preadipocytes; type: cell-based; settings: prieurianin 2 μM
Method: as §3

[4] = system: differentiated NIH-3T3/L1 adipocytes; assay: Loss of lipid-positive differentiated adipocytes (oil red O, A510; Nile Red); type: cell-based; settings: 1 μM bufalin, Nile Red
Method: FIG. 8. Prieurianin induced loss of differentiated adipocytes. NIH-3T3/L1 preadipocytes were induced into differentiation. Five days following differentiation, cells were treated with various concentrations (0.5, 1, and 2 μM) of prieurianin for an additional five days and followed by staining with oil red O. Micrographs were obtained from representatives of triplicate experiments. Isopropanol extracts of positively stained cells were quantified spectrophotometrically at 510 nm as shown in histogram on the right. Results are means±S.E. of triplicate experiments.
as §1
To assess whether prieurianin has any effect on the differentiated adipocytes, the preadipocytes were allowed to differentiate into adipocytes and then were further cultured for about five days before treating the adipocytes with prieurianin for an additional five to six days, followed by oil red O staining for the presence of lipid accumulating adipocytes.

`CN[C@@H]1C[C@H]2O[C@@](C)([C@@H]1OC)n1c3ccccc3c3c4c(c5c6ccccc6n2c5c31)C(=O)NC4` [staurosporine] was tested, and the “effect on TPA activation of PLTP promoter” value (PLTP promoter; co-treatment with TPA) was “abolished”, the “effect on transactivation of PLTP promoter by prieurianin” value (PLTP promoter) was “strongly inhibited PLTP transactivation by prieurianin; also recorded: inhibited” and the “differentiation, staurosporine alone” value (NIH-3T3/L1 preadipocytes; data not shown) was “no observable effects on differentiation”.

`CC(/C=C/C(=O)NO)=C\[C@@H](C)C(=O)c1ccc(N(C)C)cc1` [trichostatin A] was tested, and the “effect on transactivation of PLTP promoter by prieurianin” value (PLTP promoter) was “though modest, potentiated the transactivation of PLTP promoter activity by prieurianin”.

With `CC[C@@]1(O)C(=O)OCc2c1cc1n(c2=O)Cc2cc3c(CN(C)C)c(O)ccc3nc2-1` [topotecan, reference compound] the “transactivation of PLTP promoter” value (PLTP promoter) was “transactivated by topotecan dose dependently”, the “PLTP expression by Northern blot analysis” value ([1]; HepG2 cells) was “induced by topotecan dose-dependently” and the “induction of PLTP expression” value ([1]; HepG2 cells, DNA microarray, peaking at 24 hrs) was “approximately 20 fold”. For the same molecule, the “onset of PLTP induction following treatment” value ([1]; time-course microarray analysis) was 12 to 15 h, the “release of PLTP by adipocytes” value (PLTP [2]; adipocytes) was “induced an increase in the release of only the low molecular weight form of PLTP” and the “release of PLTP by preadipocytes” value (PLTP [2]; preadipocytes) was “release of the low but not the high molecular form of PLTP was reduced”. The “adiponectin release by preadipocytes” value (adiponectin) was “significantly inhibited the production of adiponectin” and the “serum PLTP protein levels” value (PLTP [3]) was “a rise in the serum PLTP protein levels”.

`CCCCCCCCCCCCCC(=O)O[C@@H]1[C@@H](C)[C@@]2(O)[C@@H](C=C(CO)C[C@]3(O)C(=O)C(C)=C[C@@H]23)[C@@H]2C(C)(C)[C@]12OC(C)=O` [TPA, 12-O-tetradecanoylphorbol-13-acetate] was tested, and the “transactivation of PLTP promoter” value (PLTP promoter) was “induced PLTP promoter”.

`C[C@]12CC[C@H](O)C[C@H]1CC[C@@H]1[C@@H]2CC[C@]2(C)[C@@H](c3ccc(=O)oc3)CC[C@]12O` [bufalin, reference compound] was tested, and the “transactivation of PLTP promoter” value (PLTP promoter) was “stimulates the PLTP promoter like prieurianin”, the “transactivation potential of C/EBPα” value (C/EBPα) was “nor did it modulate the transcriptional activity” and the “transactivation potential of C/EBPβ” value (C/EBPβ) was “nor did it modulate the transcriptional activity”. The “NFκB-response element mediated transcription” value (NFκB) was “nor did it modulate the transcriptional activity”, the “transactivation potential of PPARγ” value (PPARγ) was “nor did it modulate the transcriptional activity” and the “de-differentiation or delipidation in adipocytes” value [4] was “neither causes de-differentiation or delipidation in adipocytes”. For the same molecule, the differentiation of preadipocytes (NIH-3T3/L1 preadipocytes; 1 μM bufalin, Nile Red) was “did not, however, inhibit the differentiation of preadipocytes”.
